This is an account of results in patent US8362000B2, “Azetidinyl diamides as monoacylglycerol lipase inhibitors” (Janssen Pharmaceutica NV, priority 2009, dated 2013).

pKd: −log10 of the molar value. Where two headings read alike, the source gives them in different places.

In one experiment the target is T1, MGL (Rattus norvegicus, UniProt Q8R431).
T1 construct: one g rat brain was homogenized using a Polytron homogenizer; from tissue; host or cells: rat brain homogenate
T1 sequence (Q8R431 1-303): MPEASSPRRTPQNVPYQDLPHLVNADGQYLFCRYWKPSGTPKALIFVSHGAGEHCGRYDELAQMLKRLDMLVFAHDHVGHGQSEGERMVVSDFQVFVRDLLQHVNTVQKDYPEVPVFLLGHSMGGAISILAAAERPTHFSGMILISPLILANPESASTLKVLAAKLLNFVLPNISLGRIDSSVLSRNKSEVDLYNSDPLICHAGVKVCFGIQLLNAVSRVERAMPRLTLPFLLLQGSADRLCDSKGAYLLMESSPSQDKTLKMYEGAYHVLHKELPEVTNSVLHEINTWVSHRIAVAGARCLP
Kind of experiment: 2-AG accumulation assay in rat brain homogenate. Format: biochemical. The conditions noted are these: rat brain homogenate, 2-AG accumulation as percent of vehicle; for 2-AG accumulation, % of vehicle control at 1 µM: compound 1 μM, read-out: Rat Brain 2AG % VehCntrl (%) @ 1 μM; for 2-AG accumulation, % of vehicle control at 10 µM: compound 10 μM, read-out: Rat Brain 2AG % VehCntrl (%) @ 10 μM.

The target in a further experiment is T2, mutant MGL (Homo sapiens, UniProt Q99685, L169S/L176S).
T2 sequence (Q99685 1-303 L169S/L176S): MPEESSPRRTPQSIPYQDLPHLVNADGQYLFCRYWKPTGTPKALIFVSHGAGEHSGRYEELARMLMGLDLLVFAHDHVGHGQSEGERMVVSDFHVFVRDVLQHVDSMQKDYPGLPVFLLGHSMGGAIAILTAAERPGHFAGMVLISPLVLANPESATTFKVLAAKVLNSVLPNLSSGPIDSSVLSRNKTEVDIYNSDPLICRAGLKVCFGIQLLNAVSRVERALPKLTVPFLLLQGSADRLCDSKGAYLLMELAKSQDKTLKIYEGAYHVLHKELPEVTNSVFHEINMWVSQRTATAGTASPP
Put plainly: MGL ThermoFluor assay - mutant. Format: binding. The conditions noted are these: for pKd: read-out: MGL mutant ThermoFluor Kd. A general note: In DSF a fluorescence change marks the thermal transition of the protein.

Setting [1] is: ThermoFluor concentration-response.
[2] abbreviates: ThermoFluor thermal stability binding assay.

As a reminder, the pKd is the Kd on a negative log10 scale, so that one unit is a factor of ten. On to `O=C(c1ccccc1)N1CCN(C2CN(C(=O)c3ccc(Sc4cccc(Cl)c4)cc3)C2)CC1` [Cpd 427, 4-(1-{[4-(3-Chloro-phenylsulfanyl)phenyl]carbonyl}azetidin-3-yl)-1-(phenylcarbonyl)-piperazine], for which the 2-AG accumulation, % of vehicle control at 1 µM on MGL was determined as 163%. Also, the pKd at mutant MGL (setting [1]) is 7.47.
On to `O=C(c1ccccc1)N1CCN(C2CN(C(=O)c3ccc(OCc4cccc(Cl)c4)c(Cl)c3)C2)CC1` [Cpd 397, 1-[1-({3-Chloro-4-[(3-chlorobenzyl)oxy]phenyl}carbonyl)azetidin-3-yl]-4-(phenylcarbonyl)piperazine], for which the 2-AG accumulation, % of vehicle control at 10 µM at MGL is 243%. On mutant MGL (setting [2]), the pKd was 7.48.
As to `Cc1cc(C(=O)N2CC(N3CCN(C(=O)c4ccccc4)CC3)C2)ccc1-c1ccccc1` [Cpd 613], the 2-AG accumulation, % of vehicle control at 1 µM at MGL was determined as 165%. Besides, the pKd on mutant MGL (setting [1]) is 7.29.
In the same order, the values of `COc1cc(C(=O)N2CC(N3CCN(C(=O)c4ccccc4)CC3)C2)ccc1-c1ccccc1` [Cpd 615] are 123% and 7.01.
On to `O=C(c1ccc(Sc2cccc(Cl)c2)cc1)N1CC(N2CCN(C(=O)c3cscn3)CC2)C1` [Cpd 429], for which the 2-AG accumulation, % of vehicle control at 1 µM at MGL was 318%. For the same compound, on mutant MGL (setting [1]), the pKd was 7.48.
`Cc1oc(-c2ccccc2)cc1C(=O)N1CC(N2CCN(C(=O)c3nccs3)CC2)C1` [Cpd 1378]: on MGL, the 2-AG accumulation, % of vehicle control at 1 µM is 493%. Further, at mutant MGL (setting [2]), the pKd is 7.60.
With `O=C(c1ccccc1)N1CCN(C2CN(C(=O)c3ccc(-c4ccccc4)cc3Cl)C2)CC1` [Cpd 612], the 2-AG accumulation, % of vehicle control at 1 µM on MGL worked out at 106%. Moreover, on mutant MGL (setting [1]), the pKd was 7.11.
Turning to `O=C(c1ccccc1)N1CCN(C2CN(C(=O)c3ccc(OCc4ccccn4)c(Cl)c3)C2)CC1` [Cpd 406], at MGL, the 2-AG accumulation, % of vehicle control at 1 µM is 99%. Besides, at mutant MGL (setting [2]), the pKd is 6.03.
In the case of `O=C(c1ccc(OCc2cccnc2)c(Cl)c1)N1CC(N2CCN(C(=O)c3nccs3)CC2)C1` [Cpd 402, 1-(1-{[3-Chloro-4-(pyridin-3-ylmethoxy)phenyl]carbon-yl}azetidin-3-yl)-4-(1,3-thiazol-2-ylcarbonyl)piperazine], the 2-AG accumulation, % of vehicle control at 1 µM at MGL came to 97%. Further, the pKd at mutant MGL (setting [2]) was 6.85.
Take `O=C(c1ccccc1)N1CCN(C2CN(C(=O)c3ccc(N4CCCCCC4)cc3)C2)CC1` [Cpd 41, 1-[4-({3-[4-(Phenylcarbonyl)piperazin-1-yl]azetidin-1-yl}carbonyl)phenyl]azepane]: the 2-AG accumulation, % of vehicle control at 10 µM at MGL came out at 544%. Also, the pKd at mutant MGL (setting [1]) is 8.40.
Take `O=C(c1ccccc1)N1CCN(C2CN(C(=O)c3ccc(COc4cccc(Cl)c4)cc3)C2)CC1` [Cpd 548]: the 2-AG accumulation, % of vehicle control at 1 µM on MGL amounted to 280%. In addition, on mutant MGL (setting [1]), the pKd was 7.21.
Regarding `O=C(c1ccc(Oc2ccc(Cl)c(Cl)c2)cc1)N1CC(N2CCN(C(=O)c3nccs3)CC2)C1` [Cpd 423, 1-(1-{[4-(3,4-Dichlorophenoxy)phenyl]carbonyl}azetidin-3-yl)-4-(1,3-thiazol-2-ylcarbonyl)piperazine], at MGL, the 2-AG accumulation, % of vehicle control at 1 µM was determined as 529%. The pKd on mutant MGL (setting [1]) is 8.16.
Take `CC(C)(C)OC(=O)N1CCC(c2ccc(C(=O)N3CC(N4CCN(C(=O)c5cscn5)CC4)C3)cc2)CC1` [Cpd 903]: at MGL, the 2-AG accumulation, % of vehicle control at 1 µM is 908%. In addition, the pKd at mutant MGL (setting [2]) was 7.11.
In the same order, the values of `O=C(c1ccc(OCc2cccc(Br)n2)cc1)N1CC(N2CCN(C(=O)c3nccs3)CC2)C1` [Cpd 983] are 194% and 7.72.
Take `N#Cc1cccc(-n2ccc3cc(C(=O)N4CC(N5CCN(C(=O)c6nccs6)CC5)C4)ccc32)c1` [Cpd 1113]: the 2-AG accumulation, % of vehicle control at 1 µM at MGL was 819%. Moreover, at mutant MGL (ThermoFluor, compound concentration measured by qNMR, read-out: MGL mutant ThermoFluor qKd (μM) (using qNMR conc.)), the Kd came to 0.01 µM.
Turning to `O=C(c1ccccc1)N1CCN(C2CN(C(=O)c3ccc(NCc4ccccc4)c(I)c3)C2)CC1` [Cpd 542], the 2-AG accumulation, % of vehicle control at 1 µM at MGL amounted to 366%. Also, at mutant MGL (setting [1]), the pKd is 7.85.
